Assay results as given in paper PMC3086094 (Journal of molecular structure, 2011).

Key:
[1] = tested on: CCD-18Co (human colon fibroblasts)
[2] = tested on: HCT-116 (human colon carcinoma); experiment: MTS cytotoxicity assay, HCT-116; type: cell-based
[3] = tested on: Caco-2 (human epithelial colorectal adenocarcinoma); experiment: cells
[4] = tested on: CCD-18Co (human colon fibroblasts); experiment: cells
[5] = tested on: calf thymus DNA (EB-DNA complex); settings: binding to DNA; cited from earlier work

Row | IC50 ([3]; Caco-2, 24 h) | IC50 ([3]; Caco-2, 48 h) | IC50 ([3]; Caco-2, 72 h) | SMILES | cytotoxic selectivity, cancer cells versus normal cells CCD-18Co [1] | IC50 ([2]; HCT-116, 24 h) | IC50 ([2]; HCT-116, 48 h) | IC50 ([2]; HCT-116, 72 h) | IC50 ([4]; 24 h) | IC50 ([4]; 48 h) | IC50 ([4]; 72 h) | KEB, binding constant for ethidium bromide [5]
1 | 23.1 ± 1.2 µM | 17.9 ± 1.3 µM | 16.5 ± 2 µM | COc1cc([C@@H]2c3cc4c(cc3[C@@H](O[C@@H]3O[C@@H]5CO[C@@H](C)O[C@H]5[C@H](O)[C@H]3O)[C@H]3COC(=O)[C@H]23)OCO4)cc(OC)c1O [Etoposide] | ~ 2.5 times | 27.2 ± 1.2 µM | 22.9 ± 1.5 µM | 18.3 ± 1.4 µM | 50.1 ± 1.5 µM | 45.2 ± 1.1 µM | 42.2 ± 1 µM | 
2 |  |  |  | CC[n+]1c(-c2ccccc2)c2cc(N)ccc2c2ccc(N)cc21 [ethidium bromide] |  |  |  |  |  |  |  | 1.2e+06 M⁻¹
